We go through three compounds from patent US10414811B2, “Protease-resistant lipidated GLP-1 analogs” (MEDIMMUNE LIMITED, priority 2015, dated 2019).

One data set deals with T1, GLP-1R (INS1e assay) (Rattus norvegicus, UniProt P32301).
T1 construct: endogenous in cells; host or cells: INS-1E cells
T1 sequence (P32301 22-463): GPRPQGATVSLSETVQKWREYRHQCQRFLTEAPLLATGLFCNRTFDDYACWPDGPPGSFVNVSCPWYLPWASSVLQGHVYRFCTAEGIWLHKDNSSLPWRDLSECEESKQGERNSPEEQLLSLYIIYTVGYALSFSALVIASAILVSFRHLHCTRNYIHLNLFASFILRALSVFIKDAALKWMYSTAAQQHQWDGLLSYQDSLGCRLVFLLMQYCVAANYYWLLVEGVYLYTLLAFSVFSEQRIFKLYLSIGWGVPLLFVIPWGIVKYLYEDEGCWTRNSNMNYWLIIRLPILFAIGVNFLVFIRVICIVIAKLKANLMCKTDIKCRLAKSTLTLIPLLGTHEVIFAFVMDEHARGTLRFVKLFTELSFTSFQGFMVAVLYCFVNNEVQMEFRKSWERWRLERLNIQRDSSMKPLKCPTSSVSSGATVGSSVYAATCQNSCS
Nature of the data set: INS1e assay, cAMP activity at GLP-1R. In kind it is cell-based. A digest of the protocol:
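cAMP was quantified by two-step HTRF, using anti-cAMP cryptate donor and cAMP-d2 acceptor, each diluted 1/20 in conjugate and lysis buffer. EC50 values of the synthetic peptides were derived from the cAMP readout.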

The target in data set [1] is T2, human glucagon receptor (GCGR) (Homo sapiens, UniProt P47871).
T2 construct: expressed in transfected cells
T2 sequence (P47871 26-477): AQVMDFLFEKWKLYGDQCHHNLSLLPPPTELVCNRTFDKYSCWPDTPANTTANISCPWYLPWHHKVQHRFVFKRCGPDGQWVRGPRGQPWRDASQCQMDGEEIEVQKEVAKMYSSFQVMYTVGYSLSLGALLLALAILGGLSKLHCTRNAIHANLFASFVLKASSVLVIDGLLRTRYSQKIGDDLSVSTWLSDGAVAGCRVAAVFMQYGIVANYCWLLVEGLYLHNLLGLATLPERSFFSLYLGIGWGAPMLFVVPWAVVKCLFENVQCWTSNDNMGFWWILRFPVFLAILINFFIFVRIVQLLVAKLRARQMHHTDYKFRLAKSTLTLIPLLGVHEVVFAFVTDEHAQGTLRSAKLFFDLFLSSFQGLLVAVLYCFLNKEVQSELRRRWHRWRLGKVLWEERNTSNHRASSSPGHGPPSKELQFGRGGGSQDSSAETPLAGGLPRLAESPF
Kind of data set: cAMP assay, human GCGR cells. In kind it is cell-based. The conditions noted are these: cAMP assay. The gist of the method: (§1)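 Peptide-stimulated cAMP measured by two-step HTRF after a 30 min room-temperature incubation with receptor-expressing cells (hGLP-1R, hGIPR at 1×10^5 cells/ml; hGCGR at 2×10^5 cells/ml). Duplicate dilutions; EC50 from 4-parameter logistic fit of % Delta F.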

The next data set concerns the target T3, Neprilysin (Homo sapiens, UniProt P08473).
T3 construct: purchased R&D Systems 1182-ZNC-010
Kind of data set: Proteolytic resistance to neprilysin (% remaining peptide, RP-HPLC AUC). In kind it is in vitro ADME. The conditions noted are these: 37° C., pH 8.3.

In data set [2] the target is T4, human glucose-dependent insulinotropic peptide receptor (GIPR) (Homo sapiens, UniProt P48546).
T4 construct: expressed in transfected cells
T4 sequence (P48546 22-466): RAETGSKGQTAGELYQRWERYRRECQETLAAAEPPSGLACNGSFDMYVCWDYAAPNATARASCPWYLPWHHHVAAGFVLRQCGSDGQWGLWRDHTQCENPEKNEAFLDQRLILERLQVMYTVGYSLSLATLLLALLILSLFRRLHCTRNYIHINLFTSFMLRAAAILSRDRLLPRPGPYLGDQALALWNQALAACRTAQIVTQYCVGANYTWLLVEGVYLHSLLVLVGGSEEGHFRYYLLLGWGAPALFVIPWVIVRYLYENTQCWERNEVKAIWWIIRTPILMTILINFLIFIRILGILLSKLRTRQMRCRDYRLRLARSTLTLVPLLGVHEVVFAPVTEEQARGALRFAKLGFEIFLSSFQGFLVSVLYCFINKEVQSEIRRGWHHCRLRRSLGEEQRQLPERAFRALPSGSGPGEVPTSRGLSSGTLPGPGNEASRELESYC
Nature of the data set: cAMP assay, human GIPR cells. In kind it is cell-based. The conditions noted are these: cAMP assay. A digest of the protocol: as §1
In general terms: Changes in cAMP serve as a functional read-out for many G protein-coupled receptors.

Data set [3] addresses T5, human GLP-1 receptor (GLP-1R) (Homo sapiens, UniProt P43220).
T5 construct: expressed in transfected cells
Nature of the data set: cAMP assay, human GLP-1R cells. To be noted: bis-lipidated peptides. In kind it is cell-based. The gist of the method:
as §1

The target of another data set is T6, trypsin (Sus scrofa, UniProt P00761).
T6 construct: purchased Sigma T7409
T6 sequence (P00761 9-231): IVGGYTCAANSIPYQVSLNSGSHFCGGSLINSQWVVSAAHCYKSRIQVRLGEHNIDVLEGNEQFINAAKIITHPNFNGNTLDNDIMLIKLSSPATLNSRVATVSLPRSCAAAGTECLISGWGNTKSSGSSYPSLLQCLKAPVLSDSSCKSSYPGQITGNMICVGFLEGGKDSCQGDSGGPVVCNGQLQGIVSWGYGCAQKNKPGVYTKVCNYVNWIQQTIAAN
Nature of the data set: Proteolytic resistance to trypsin (% remaining intact peptide, RP-HPLC AUC). It counts as in vitro ADME. The conditions noted are these: pig, porcine pancreatic trypsin, 37° C., pH 7.8, read-out: Percentage remaining intact peptide (AUC by RP-HPLC) upon incubation with trypsin. From the text:
Ratio enzyme (units):peptide (μmoles)˜1:11. […] Ratio enzyme (units):peptide (μmoles)˜1.2:1.

For a further data set, the target named is T7, pepsin (Sus scrofa, UniProt P00791).
T7 construct: purchased Sigma P7012
T7 sequence (P00791 60-385): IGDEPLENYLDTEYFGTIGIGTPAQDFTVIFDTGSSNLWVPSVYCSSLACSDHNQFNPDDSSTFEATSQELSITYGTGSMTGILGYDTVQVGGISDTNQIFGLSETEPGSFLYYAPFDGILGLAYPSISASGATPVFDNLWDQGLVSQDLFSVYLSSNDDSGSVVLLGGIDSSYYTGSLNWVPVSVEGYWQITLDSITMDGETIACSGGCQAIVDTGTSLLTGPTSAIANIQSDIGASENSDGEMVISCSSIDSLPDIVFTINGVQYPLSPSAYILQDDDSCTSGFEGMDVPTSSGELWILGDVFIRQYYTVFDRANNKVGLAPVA
Nature of the data set: Proteolytic resistance to pepsin (% remaining intact peptide, RP-HPLC AUC). The conditions noted are these: pig, porcine pepsin, 37° C., pH 2.0, read-out: Percentage remaining intact peptide (AUC by RP-HPLC) upon incubation with pepsin. In kind it is in vitro ADME. As to the method: Lyophilized porcine […] pepsin (Sigma: P7012) was reconstituted to afford a solution of 200 μg/mL (˜500 units/mL) in assay buffer (0.1 M HCl, pH 2.0) to give the enzyme stock solution. […] Ratio enzyme (units):peptide (μmoles)˜1:6. […] Ratio enzyme (units):peptide (μmoles)˜2:1.
Lyophilized porcine […] pepsin (Sigma: P7012) was reconstituted to 200 μg/mL (˜500 units/mL) in assay buffer (1.0 M HCl, pH 2.0) to give the enzyme stock solution.

Structures are written as SMILES. Read-outs that look alike come from different tables or passages of the source. Numbered stars: 1 amine (or outer) side, 2 acyl side, 3 side chain; on linkers, the order of the positions; unused ones are H or OH. Square brackets hold non-standard residues; d marks the D form. Side chains are listed from the residue outwards. Peptide text beside a SMILES is read from it. * marks the point of attachment. γGlu = O=C(O)[C@H](CCC(=O)[*:2])N[*:1]; Palmitoyl = CCCCCCCCCCCCCCCC(=O)*; αMeF = C[C@](N)(Cc1ccccc1)C(=O)O; αMeK = C[C@](N)(CCCCN)C(=O)O; Lauroyl = CCCCCCCCCCCC(=O)*; αMeS = C[C@](N)(CO)C(=O)O; AEEA = NCCOCCOCC(=O)O; Aib = CC(C)(N)C(=O)O

T5 sequence (P43220 24-463): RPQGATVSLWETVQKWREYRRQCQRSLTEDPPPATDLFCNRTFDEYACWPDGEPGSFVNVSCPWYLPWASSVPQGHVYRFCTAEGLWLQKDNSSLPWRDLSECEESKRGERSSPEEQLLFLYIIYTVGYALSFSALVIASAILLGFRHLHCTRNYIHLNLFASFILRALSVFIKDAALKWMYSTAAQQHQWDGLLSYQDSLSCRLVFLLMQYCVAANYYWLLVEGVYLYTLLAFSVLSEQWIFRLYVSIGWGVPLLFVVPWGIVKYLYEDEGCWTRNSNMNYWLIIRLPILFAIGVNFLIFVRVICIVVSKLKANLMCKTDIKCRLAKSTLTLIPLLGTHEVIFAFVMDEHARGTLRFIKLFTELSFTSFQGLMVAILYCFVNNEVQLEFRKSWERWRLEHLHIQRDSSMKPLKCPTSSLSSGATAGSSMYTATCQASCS
T3 sequence (P08473 whole entry): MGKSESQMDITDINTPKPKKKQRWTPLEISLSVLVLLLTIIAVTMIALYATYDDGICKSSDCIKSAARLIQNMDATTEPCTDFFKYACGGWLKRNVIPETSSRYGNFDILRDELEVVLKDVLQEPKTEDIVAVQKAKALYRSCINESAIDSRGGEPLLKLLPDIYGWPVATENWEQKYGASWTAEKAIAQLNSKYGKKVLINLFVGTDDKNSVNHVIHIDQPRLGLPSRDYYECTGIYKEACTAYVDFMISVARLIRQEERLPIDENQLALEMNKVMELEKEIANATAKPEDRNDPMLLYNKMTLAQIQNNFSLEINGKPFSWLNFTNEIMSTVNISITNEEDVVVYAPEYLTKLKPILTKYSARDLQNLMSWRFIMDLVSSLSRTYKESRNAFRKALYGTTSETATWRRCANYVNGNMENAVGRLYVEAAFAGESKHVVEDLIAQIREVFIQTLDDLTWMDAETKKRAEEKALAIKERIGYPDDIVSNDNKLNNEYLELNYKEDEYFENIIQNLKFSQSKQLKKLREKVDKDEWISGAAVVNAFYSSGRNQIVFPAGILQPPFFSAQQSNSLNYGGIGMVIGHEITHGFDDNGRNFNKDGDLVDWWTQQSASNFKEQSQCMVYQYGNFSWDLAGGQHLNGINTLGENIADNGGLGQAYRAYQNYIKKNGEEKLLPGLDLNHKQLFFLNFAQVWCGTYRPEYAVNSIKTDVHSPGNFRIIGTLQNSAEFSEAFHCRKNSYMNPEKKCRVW
Protocol for Neprilysin: Ratio enzyme (units):peptide (μmoles)˜1:33. […] Ratio enzyme (units):peptide (μmoles)˜1:2.5.
15 μL aliquots (˜15 μg initial peptide) of the peptide-enzyme mixture were periodically withdrawn (t=0, 30 mins, 1 hr, 2 hr, 4 hr, 8 hr, 24 hr) and quenched immediately by addition to an equal volume (15 μL) of 5% TFA (v/v) in 1:1 water/acetonitrile to arrest proteolytic activity. 20 μL aliquots (˜10 μg initial peptide) were analyzed by LC/MS and/or analytical RP-HPLC as follows: LC/MS method: Agilent Polaris C8-A column (4.6×100 mm, 3 micron) eluted with a linear binary gradient of 10-90% MeCN (0.1% TFA v/v) in water (0.1% TFA v/v) over 30 mins at 1.5 mL min-1 at ambient temperature with detection by both UV absorption at 210 nm and ionization using a Waters 3100 mass detector (ESI+ mode). Peptide fragments deriving from enzymatic hydrolysis were identified by molecular weight, allowing location of the site of cleavage. Analytical RP-HPLC method: Agilent Polaris C8-A column (4.6×100 mm, 3 micron) eluted with a linear binary gradient of 10-90% MeCN (0.1% TFA v/v) in water (0.1% TFA v/v) over either 10 or 15 mins at 1.5 mL min^−1 at 40° C. with detection by UV absorption at 210 nm. Manual integration (AUC) allowed estimation of remaining intact peptide over the time course of the experiment.
25 μL aliquots (˜6 μg initial peptide) were analyzed by LC/MS and/or analytical RP-HPLC as follows: LC/MS method: Agilent Polaris C8-A column (4.6×100 mm, 3 micron) eluted with a linear binary gradient of 10-90% MeCN (0.1% TFA v/v) in water (0.1% TFA v/v) over 30 mins at 1.5 mL min^−1 at ambient temperature with detection by both UV absorption at 210 nm and ionization using a Waters 3100 mass detector (ESP mode). Peptide fragments deriving from enzymatic hydrolysis were identified by molecular weight, allowing location of the site of cleavage. Analytical RP-HPLC method: Agilent Polaris C8-A column (4.6×100 mm, 3 micron) eluted with a linear binary gradient of 10-90% MeCN (0.1% TFA v/v) in water (0.1% TFA v/v) over either 10 or 15 mins at 1.5 mL min^−1 at 40° C. with detection by UV absorption at 210 nm. Manual integration (AUC) allowed estimation of remaining intact peptide over the time course of the experiment.

Usually EC50 stands for the concentration that produces a half-maximal response. With `CC[C@H](C)[C@H](NC(=O)[C@](C)(Cc1ccccc1)NC(=O)[C@H](CCC(=O)O)NC(=O)[C@](C)(CCCCN)NC(=O)[C@H](C)NC(=O)[C@H](C)NC(=O)[C@H](CCC(=O)O)NC(=O)CNC(=O)[C@H](CCC(=O)O)NC(=O)[C@H](CC(C)C)NC(=O)[C@](C)(Cc1ccccc1)NC(=O)[C@H](CO)NC(=O)[C@](C)(CO)NC(=O)[C@@H](NC(=O)[C@H](CC(=O)O)NC(=O)[C@H](CO)NC(=O)[C@@H](NC(=O)[C@](C)(Cc1ccccc1)NC(=O)[C@H](CO)NC(=O)CNC(=O)[C@H](CCC(=O)O)NC(=O)C(C)(C)NC(=O)[C@@H](N)Cc1c[nH]cn1)[C@@H](C)O)C(C)C)C(=O)N[C@@H](C)C(=O)N[C@@](C)(Cc1ccccc1)C(=O)N[C@H](C(=O)N[C@H](C(=O)N[C@@](C)(CCCCN)C(=O)NCC(=O)NCC(N)=O)C(C)C)C(C)C` [compound 17], the EC50 on GLP-1R (INS1e assay) (mono-lipidated peptides, mean of n1 and n2, read-out: INS1e assay EC50 Mean pM GLP-1R) was 6 pM; at GLP-1R (INS1e assay) (mono-lipidated peptides, replicate n1, read-out: INS1e assay EC50 GLP-1R n1), 5.1 pM; on GLP-1R (INS1e assay) (mono-lipidated peptides, replicate n2, read-out: INS1e assay EC50 GLP-1R n2), 7.87 pM; in data set [1] (first determination (n1), read-out: Primary assay EC50 Gluc-R (n1)), at least 31000 pM; in data set [1] (second determination (n2), read-out: Primary assay EC50 Gluc-R (n2)), at least 31000 pM; in data set [2] (first determination (n1), read-out: Primary assay EC50 GIP-R (n1)) it was at least 31000 pM. The EC50 in data set [2] (second determination (n2), read-out: Primary assay EC50 GIP-R (n2)) is at least 31000 pM. Besides, at Neprilysin, the “Percentage remaining peptide (AUC at specified time-point by RP-HPLC) upon incubation with neprilysin, t = 0” value (“Percentage remaining peptide” for short) is 100%.

Broadly, the amount remaining is the share of the starting amount still present when the sample was taken. In the case of `CCCCCCCCCCCC(=O)N[C@@H](CCC(=O)NCCOCCOCC(=O)NCCOCCOCC(=O)NCCCC[C@H](NC(=O)[C@H](C)NC(=O)[C@@H](NC(=O)[C@H](Cc1ccccc1)NC(=O)[C@H](CCC(=O)O)NC(=O)[C@](C)(CCCCN)NC(=O)[C@H](C)NC(=O)[C@H](C)NC(=O)[C@H](CCC(=O)O)NC(=O)CNC(=O)[C@H](CCC(=O)O)NC(=O)[C@H](CCCCNC(=O)COCCOCCNC(=O)COCCOCCNC(=O)CC[C@H](NC(=O)CCCCCCCCCCC)C(=O)O)NC(=O)[C@H](Cc1ccc(O)cc1)NC(=O)[C@H](CO)NC(=O)[C@](C)(CO)NC(=O)[C@@H](NC(=O)[C@H](CC(=O)O)NC(=O)[C@H](CO)NC(=O)[C@@H](NC(=O)[C@](C)(Cc1ccccc1)NC(=O)[C@H](CO)NC(=O)CNC(=O)[C@H](CCC(=O)O)NC(=O)C(C)(C)NC(=O)[C@@H](N)Cc1c[nH]cn1)[C@@H](C)O)C(C)C)[C@@H](C)CC)C(=O)N[C@H](C(=O)N[C@H](C(=O)N[C@@H](CCC(=O)O)C(=O)NCC(=O)NCC(N)=O)C(C)C)C(C)C)C(=O)O` [compound 269] (H-H[Aib]EGS[αMeF]TSDV[αMeS]SYK([AEEA-AEEA-γGlu-Lauroyl])EGEAA[αMeK]EFIAK([AEEA-AEEA-γGlu-Lauroyl])VVEGG-NH2), the EC50 at GLP-1R (INS1e assay) (bis-lipidated peptides, mean of n1 and n2, read-out: INS1e assay EC50 Mean pM GLP-1R) turned out to be 212 pM; on GLP-1R (INS1e assay) (bis-lipidated peptides, replicate n1, read-out: INS1e assay EC50 GLP-1R n1), 243 pM; at GLP-1R (INS1e assay) (bis-lipidated peptides, replicate n2, read-out: INS1e assay EC50 GLP-1R n2), 181 pM; in data set [3] (mean of n1 and n2, read-out: Primary assay EC50 Mean pM GLP-1R), 4.6 pM; in data set [3] (replicate n1, read-out: Primary assay EC50 GLP-1R n1), 4.01 pM; in data set [3] (replicate n2, read-out: Primary assay EC50 GLP-1R n2), 5.24 pM. For the same compound, the amount remaining at 0.5 h on Neprilysin (recombinant neprilysin, t = 30 min) came to 95.7%; on trypsin (t = 30 min), 96.8%; at pepsin (t = 30 min) it was 74.9%. Further, the share remaining at 1 h was found to be 92.8% at Neprilysin (recombinant neprilysin, t = 1 hr); 95.2% at trypsin (t = 1 hr); 55.8% on pepsin (t = 1 hr). For the same compound, the share remaining at 4 h amounted to 95.3% at Neprilysin (recombinant neprilysin, t = 4 hr); 85.2% at trypsin (t = 4 hr); 22.4% at pepsin (t = 4 hr). Moreover, the amount remaining at 8 h is 89.7% on Neprilysin (recombinant neprilysin, t = 8 hr); 82.9% at trypsin (t = 8 hr); 13.4% at pepsin (t = 8 hr). In addition, the share remaining at 24 h worked out at 89.3% at Neprilysin (recombinant neprilysin, t = 24 hr, read-out: Percentage remaining peptide (AUC at specified time-point by RP-HPLC) upon incubation with neprilysin, t = 24 hr); 74.7% at trypsin (t = 24 hr); 0% on pepsin (t = 24 hr). The “Percentage remaining peptide” value at Neprilysin was determined as 100%. Further, the share remaining at 2 h on trypsin (t = 2 hr) came to 89.9%; on pepsin (t = 2 hr), 38.6%.

`CCCCCCCCCCCCCCCC(=O)NCCCC[C@H](NC(=O)CNC(=O)CNC(=O)[C@](C)(CCCCN)NC(=O)[C@@H](NC(=O)[C@@H](NC(=O)[C@](C)(Cc1ccccc1)NC(=O)[C@H](C)NC(=O)[C@@H](NC(=O)[C@](C)(Cc1ccccc1)NC(=O)[C@H](CCC(=O)O)NC(=O)[C@](C)(CCCCN)NC(=O)[C@H](C)NC(=O)[C@H](C)NC(=O)[C@H](CCC(N)=O)NC(=O)CNC(=O)[C@H](CCC(=O)O)NC(=O)[C@H](CC(C)C)NC(=O)[C@](C)(Cc1ccccc1)NC(=O)[C@H](CO)NC(=O)[C@H](CO)NC(=O)[C@@H](NC(=O)[C@H](CC(=O)O)NC(=O)[C@H](CO)NC(=O)[C@@H](NC(=O)[C@](C)(Cc1ccccc1)NC(=O)[C@H](CO)NC(=O)CNC(=O)[C@H](CCC(=O)O)NC(=O)C(C)(C)NC(=O)[C@@H](N)Cc1c[nH]cn1)[C@@H](C)O)C(C)C)[C@@H](C)CC)C(C)C)C(C)C)C(N)=O` [compound 489] (H-H[Aib]EGS[αMeF]TSDVSS[αMeF]LEGQAA[αMeK]E[αMeF]IA[αMeF]VV[αMeK]GGK(Palmitoyl)-NH2): on Neprilysin, the “Percentage remaining peptide” value was determined as 100%.
